Assay results taken from patent US8357634B2, “N-alkoxycarboxamides and their use as microbiocides” (Syngenta Crop Protection LLC, priority 2009, dated 2013).

Tests used:
Septoria tritici = experiment: Example B-3: Action against Septoria tritici, fungal growth assay; format: cell-based; conditions: Zymoseptoria tritici; 0.002% active ingredient; PDB broth, 24° C., photometric after 72 hrs
Method: (§1) Action Against Septoria tritici—Fungal Growth Assay Conidia of the fungus from cryogenic storage were directly mixed into nutrient broth (PDB potato dextrose broth). After placing a (DMSO) solution of the test compounds (0.002% active ingredient) into a microtiter plate (96-well format) the nutrient broth containing the fungal spores was added. The test plates were incubated at 24° C. and the inhibition of growth was determined photometrically after 72 hrs. The activity of a compound was expressed as fungal growth inhibition (0=no growth inhibition, ratings of 80% to 99% mean good to very good inhibition, 100%=complete inhibition).

[1] = tested on: Mycosphaerella praminicola (Seotoria tritici); experiment: Example B-16: Mycosphaerella graminicola (Septoria tritici) / liquid culture (comparative); format: cell-based; conditions: 96 h, 24° C., photometric after 4 days, read-out: inhibition of growth
Method: Mycosphaerella praminicola (Seotoria tritici)/Liquid Culture (Septoria Blotch) Conidia of the fungus from cryogenic storage were directly mixed into nutrient broth (PDB potato dextrose broth). After placing a (DMSO) solution of the test compounds into a microtiter plate (96-well format) the nutrient broth containing the fungal spores was added. The test plates were incubated at 24° C. and the inhibition of growth is measured photometrically after 4 days.

[2] = tested on: Botryotinia fuckeliana (Botrytis cinerea); experiment: Example B-14: Botryotinia fuckeliana (Botrytis cinerea) / liquid culture (comparative); format: cell-based; conditions: 24° C., photometric after 3-4 days, read-out: inhibition of growth
Method: Botryotinia fuckeliana (Botrytis cinerea)/Liquid Culture (Gray Mould) Conidia of the fungus from cryogenic storage were directly mixed into nutrient broth. After placing a (DMSO) solution of the test compounds into a microtiter plate (96-well format) the nutrient broth containing the fungal spores was added. The test plates were incubated at 24° C. and the inhibition of growth is determined photometrically after 3-4 days.

Botrvtis cinerea = experiment: Example B-1: Action against Botrytis cinerea, fungal growth assay; format: cell-based; conditions: 0.002% active ingredient, PDB broth, 24° C., photometric after 3-4 days
Method: as §1, with “Action against Botrvtis cinerea—fungal growth assay” for “Action Against Septoria tritici—Fungal Growth Assay”, “storage was” for “storage were”, “was measured” for “was determined”, “after 3-4 days.” for “after 72 hrs.”

Puccinia recondita = experiment: Example B-10: Puccinia recondita / wheat / leaf disc preventative (comparative); format: in vivo; conditions: 8 dpi
Method: Puccinia recondita/Wheat/Leaf Disc Preventative (Brown Rust) Wheat leaf segments were placed on agar in multiwell plates (24-well format) and sprayed with test solutions. After drying, the leaf disks were inoculated with a spore suspension of the fungus. After appropriate incubation the activity of a compound was assessed 8 dpi (days after inoculation) as preventive fungicidal activity.

SMILES: CON(C(=O)c1cn(C)nc1C(F)F)C(C)c1ccc(Cl)cc1Cl (stereo not drawn) [Compound 1.023]
- inhibition at 0.002 % strength (Septoria tritici): ≥ 80%
- melting point: 135 to 141 °C
- inhibition at 6 ppm ([1]; 6 ppm): 100%
- inhibition at 20 ppm ([1]; 20 ppm): 100%
- inhibition at 60 ppm ([1]; 60 ppm): 100%
- inhibition at 20 ppm ([2]; 20 ppm): 20%
- inhibition at 60 ppm ([2]; 60 ppm): 100%
- inhibition at 200 ppm ([2]; 200 ppm): 100%
- inhibition at 0.002 % strength (Botrvtis cinerea): ≥ 80%
- preventive fungicidal activity (Puccinia recondita; 20 ppm): 0
- preventive fungicidal activity (Puccinia recondita; 60 ppm): 50
- preventive fungicidal activity (Puccinia recondita; 200 ppm): 70
